According to ChEMBL document CHEMBL1201862, “PubChem BioAssay data set” (2004):
The source made the active and inactive calls.

Experiments:
[1] = biological target: T1, Carboxy-terminal domain RNA polymerase II polypeptide A small phosphatase 1 (Homo sapiens, UniProt Q9GZU7); experiment: inhibitors of CTDSP1, concentration-response testing, biochemical assay, absorbance-based, actives from ultra-high-throughput screening (AID 540297); format: functional
T1 sequence (Q9GZU7 whole entry): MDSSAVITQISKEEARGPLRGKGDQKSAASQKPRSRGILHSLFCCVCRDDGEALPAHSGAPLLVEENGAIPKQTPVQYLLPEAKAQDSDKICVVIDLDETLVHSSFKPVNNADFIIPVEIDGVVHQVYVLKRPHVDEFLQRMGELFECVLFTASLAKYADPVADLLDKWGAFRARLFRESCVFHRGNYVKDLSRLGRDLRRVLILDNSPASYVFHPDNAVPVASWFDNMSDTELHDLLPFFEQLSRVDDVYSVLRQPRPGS

[2] = biological target: Nonstructural protein 1 (Influenza A virus, UniProt Q194T2); format: functional, Influenza A virus (A/California/07/2009(H1N1))
Sequence of Nonstructural protein 1 (Q194T2 whole entry): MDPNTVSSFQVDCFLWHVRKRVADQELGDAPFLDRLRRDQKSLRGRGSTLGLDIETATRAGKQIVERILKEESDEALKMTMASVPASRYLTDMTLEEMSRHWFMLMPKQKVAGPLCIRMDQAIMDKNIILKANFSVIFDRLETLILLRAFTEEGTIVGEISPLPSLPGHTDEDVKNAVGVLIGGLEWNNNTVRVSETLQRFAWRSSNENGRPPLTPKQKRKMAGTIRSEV

[3] = biological target: T2, Polyadenylate-binding protein 1 (Homo sapiens, UniProt P11940); experiment: PABP1 MLLE–PAM2 interaction inhibitors, dose response, miRNA deadenylation inhibitor project, biochemical, fluorescence polarization, Cy5-PAM2 peptide, secondary (AID 602260); format: functional; details: read-out: IC50_Mean
T2 sequence (P11940 whole entry): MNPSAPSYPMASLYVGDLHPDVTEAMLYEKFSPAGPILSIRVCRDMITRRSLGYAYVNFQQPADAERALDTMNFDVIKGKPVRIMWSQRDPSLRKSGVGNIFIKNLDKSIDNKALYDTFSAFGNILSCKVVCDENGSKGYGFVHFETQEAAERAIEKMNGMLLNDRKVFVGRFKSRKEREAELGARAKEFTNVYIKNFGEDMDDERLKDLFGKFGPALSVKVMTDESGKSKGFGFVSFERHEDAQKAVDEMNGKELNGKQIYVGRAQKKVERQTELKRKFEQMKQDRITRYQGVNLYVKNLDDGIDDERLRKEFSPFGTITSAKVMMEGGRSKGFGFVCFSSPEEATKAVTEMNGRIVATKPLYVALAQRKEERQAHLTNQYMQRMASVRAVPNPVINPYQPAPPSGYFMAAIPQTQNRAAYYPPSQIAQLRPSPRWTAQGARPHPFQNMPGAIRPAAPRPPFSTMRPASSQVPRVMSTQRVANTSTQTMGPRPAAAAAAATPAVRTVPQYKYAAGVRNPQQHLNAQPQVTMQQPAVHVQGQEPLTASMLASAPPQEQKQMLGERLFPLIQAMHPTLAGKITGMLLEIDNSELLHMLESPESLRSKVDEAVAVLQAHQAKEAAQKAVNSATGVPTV

[4] = biological target: T2, Polyadenylate-binding protein 1; experiment: PABP1 MLLE–PAM2 binding inhibitor potency, dose response, biochemical, fluorescence polarization, FITC-PAM2 peptide (AID 602259); format: functional; details: read-out: IC50_Mean
[5] = Luminescence Cell-Based Dose Response HTS to Identify Activators of Luciferase Translation or Activity in H4 […] Cells. [Related pubchem assays: 1829 (Project Summary), 1814 (Primary HTS)]; format: functional
[6] = biological target: T3, RNA-binding protein pos-1 (Caenorhabditis elegans, UniProt G5EF15); experiment: inhibitors of POS-1/mex-3 RNA binding, dose response, biochemical, fluorescence polarization (AID 1964);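 further: purified POS-1 fused to maltose binding protein made in E. coli; potency of compounds blocking POS-1 binding to fluorescent RNA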
T3 sequence (G5EF15 whole entry): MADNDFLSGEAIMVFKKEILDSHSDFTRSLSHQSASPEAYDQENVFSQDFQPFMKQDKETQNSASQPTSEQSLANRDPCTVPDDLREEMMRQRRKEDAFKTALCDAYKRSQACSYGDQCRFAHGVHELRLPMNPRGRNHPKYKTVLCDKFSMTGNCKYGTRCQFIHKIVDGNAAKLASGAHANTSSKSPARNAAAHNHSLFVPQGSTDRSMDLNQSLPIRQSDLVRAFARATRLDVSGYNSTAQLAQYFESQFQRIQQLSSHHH

[7] = biological target: T4, Zinc finger protein mex-5 (Caenorhabditis elegans, UniProt Q9XUB2); experiment: MEX-5/TCR-2 RNA interaction inhibitors, dose response, biochemical, C. elegans, fluorescence polarization (AID 1960)
T4 sequence (Q9XUB2 whole entry): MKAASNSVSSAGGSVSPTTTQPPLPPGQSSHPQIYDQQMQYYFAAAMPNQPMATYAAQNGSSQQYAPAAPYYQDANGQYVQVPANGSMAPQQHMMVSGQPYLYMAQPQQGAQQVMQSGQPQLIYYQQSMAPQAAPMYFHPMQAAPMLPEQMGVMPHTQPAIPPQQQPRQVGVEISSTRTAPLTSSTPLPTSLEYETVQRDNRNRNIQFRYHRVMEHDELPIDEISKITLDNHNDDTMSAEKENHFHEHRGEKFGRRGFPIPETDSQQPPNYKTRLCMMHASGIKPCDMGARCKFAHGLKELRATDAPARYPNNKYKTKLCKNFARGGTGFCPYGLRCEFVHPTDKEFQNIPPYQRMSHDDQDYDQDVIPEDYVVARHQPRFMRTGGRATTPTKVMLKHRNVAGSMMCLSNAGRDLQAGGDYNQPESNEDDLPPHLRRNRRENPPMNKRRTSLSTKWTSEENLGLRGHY

[8] = growth suppression of PTEN-null colon cells, dose response, cell-based, HCT116 PTEN knockout (AID 1047); format: functional;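 further: HCT116 colon tumor cells with PTEN knocked out; cells exposed to compound for 60 hours before readout; potency for loss of cell viability measured by luminescence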
[9] = growth suppression of beta-catenin-knockout colon cells, dose response, cell-based, HCT116, human colon tumor (AID 1045); format: functional;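 further: HCT116 colon tumor cells with beta catenin knocked out; cells exposed to compound for 60 hours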
[10] = biological target: T5, Calpain-2 catalytic subunit (Sus scrofa, UniProt P43367); experiment: pig calpain II inhibitor potency, dose response, biochemical, fluorogenic peptide substrate (AID 1420); format: functional
T5 sequence (P43367 whole entry): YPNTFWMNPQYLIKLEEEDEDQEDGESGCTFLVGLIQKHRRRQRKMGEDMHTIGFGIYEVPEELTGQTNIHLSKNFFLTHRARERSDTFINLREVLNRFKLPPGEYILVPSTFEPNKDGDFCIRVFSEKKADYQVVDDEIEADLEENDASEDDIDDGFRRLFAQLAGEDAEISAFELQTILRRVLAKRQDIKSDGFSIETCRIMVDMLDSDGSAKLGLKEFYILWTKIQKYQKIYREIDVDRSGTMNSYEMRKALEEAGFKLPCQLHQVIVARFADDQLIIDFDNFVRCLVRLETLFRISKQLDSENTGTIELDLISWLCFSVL

[11] = biological target: T6, Heat shock factor protein 1 (Mus musculus, UniProt P38532); experiment: HSF1 potentiators in luciferase reporter cells, confirmation, cell-based, NIH3T3, luminescence, dose retest (AID 435004); format: functional;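 further: stress induced by proteasome inhibitor MG132 added 30 min after compound; luciferase reporter driven by HSF1 response element in NIH3T3 cells; actives raise luminescence as potentiators of the MG132 stress response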
T6 sequence (P38532 whole entry): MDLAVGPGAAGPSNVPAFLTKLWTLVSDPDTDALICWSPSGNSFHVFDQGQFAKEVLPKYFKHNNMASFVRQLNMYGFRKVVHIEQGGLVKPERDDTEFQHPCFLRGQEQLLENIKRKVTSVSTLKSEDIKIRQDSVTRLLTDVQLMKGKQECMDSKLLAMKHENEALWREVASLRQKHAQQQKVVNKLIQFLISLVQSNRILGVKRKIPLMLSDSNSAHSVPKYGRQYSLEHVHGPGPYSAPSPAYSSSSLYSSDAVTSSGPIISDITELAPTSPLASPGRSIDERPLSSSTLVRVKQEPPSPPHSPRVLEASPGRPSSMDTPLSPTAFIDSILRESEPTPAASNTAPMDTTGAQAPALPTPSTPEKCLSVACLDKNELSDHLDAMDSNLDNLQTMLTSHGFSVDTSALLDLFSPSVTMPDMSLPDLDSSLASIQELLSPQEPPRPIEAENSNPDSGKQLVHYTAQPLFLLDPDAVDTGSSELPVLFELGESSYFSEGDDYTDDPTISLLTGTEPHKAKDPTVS

[12] = biological target: FAD-linked sulfhydryl oxidase ALR (Homo sapiens, UniProt P55789); experiment: inhibitors of human ALR sulfhydryl oxidase, dose response, biochemical, H2O2 detection, luminescence, cherry-pick (AID 493248)
Sequence of FAD-linked sulfhydryl oxidase ALR (P55789 whole entry): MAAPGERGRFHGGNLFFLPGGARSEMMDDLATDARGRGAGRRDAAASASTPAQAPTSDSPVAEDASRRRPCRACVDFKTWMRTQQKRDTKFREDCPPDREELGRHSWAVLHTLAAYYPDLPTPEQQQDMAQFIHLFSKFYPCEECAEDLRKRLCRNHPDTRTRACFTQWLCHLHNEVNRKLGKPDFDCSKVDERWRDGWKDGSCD

## O=C(CCS(=O)(=O)c1ccc(Br)cc1)NC1CCCC1
[1]
  IC50: 9.44 µM (active)

## O=C(NCc1ccccn1)C(=O)N/N=C/c1ccccc1O
[2]
  IC50: 14 µM (active)

## CCOC(=O)c1c(-c2ccc(C)o2)csc1NC(=S)NC(=O)c1ccc(F)cc1
[3]
  IC50: > 66 µM (inactive)
[4]
  IC50: > 66 µM (inactive)

## Cc1ccc(-n2c(C)cc(C(=O)COC(=O)c3c(C)noc3C)c2C)cc1
[5]
  EC50: 0.413 µM (active)

## CCN(CC)c1ccc(Nc2nc(N3CCOCC3)c3ccccc3n2)cc1
[2]
  IC50: 11.5 µM (active)

## COc1ccc(C2C(C#N)=C(/N=C/N3CCOCC3)OC3=C2C(=O)CC(C)(C)C3)cc1OC (stereo unspecified)
[6]
  EC50: > 300 µM (not active)
[7]
  EC50: > 300 µM (not active)

## COc1ccccc1NC(=O)C1=C(C)N(c2ccccc2)C(S)=NC1c1cccc(C(F)(F)F)c1 (stereo unspecified)
[8]
  EC50: 14.3 µM (active)
[9]
  EC50: 13.7 µM (active)

## Cc1noc(C)c1COC(=O)C(c1ccccc1)c1ccccc1
[10]
  IC50: 11.3 µM (not active)

## COc1ccc(CCNCc2ccc(Br)cc2)cc1OC
[11]
  EC50: > 260 µM (inactive)

## O=C(CN1C(=O)NC(Cc2ccccc2)C1=O)Nc1ccccc1 (stereo unspecified)
[10]
  IC50: 17.4 µM (not active)

## Cc1cccc(N=Nc2c(O)nc(O)c(C#N)c2C)c1
[11]
  EC50: 258 µM (active)

## CC(=O)Nc1ccc(N2C(=O)CSC2c2ccccc2[N+](=O)[O-])cc1 (stereo unspecified)
[12]
  AC50: 0.517 µM (active)

## C#CCOCCOCCOCCNc1nc(N2CCN(C(=O)[C@H]([C@@H](C)CC)n3cc([C@@H](N)CO)nn3)CC2)nc(N2CCN(C(=O)[C@H]([C@@H](C)CC)n3cc([C@@H](N)CC(C)C)nn3)CC2)n1
[6]
  EC50: 24.4 µM (active)
[7]
  EC50: 18 µM (active)
[3]
  IC50: > 66 µM (inactive)
[4]
  IC50: 43.1 µM (inactive)

## CC(=O)c1ccc(NC(=O)C2CCCNC2=O)cc1 (stereo unspecified)
[3]
  IC50: > 66 µM (inactive)
[4]
  IC50: > 66 µM (inactive)

## COc1cc(CNc2nc(C)c([N+](=O)[O-])c(C)c2C#N)cc(OC)c1
[10]
  IC50: 1.63 µM (not active)

## COc1ccc(Br)cc1CNc1ccc2[nH]c(O)nc2c1
[12]
  AC50: 1.08 µM (active)

## O=C(Nc1ccc2c(c1)C(=O)NC2=O)c1cccc(C(F)(F)F)c1
[1]
  IC50: 9.33 µM (active)

## CCCCOC(=O)c1ccc(NC(=O)c2c(Cl)ccc(Cl)c2OC)cc1
[10]
  IC50: 10.8 µM (not active)

## COC(=O)CCC(=O)OC1(C)C(=O)C=C2C=C(C3CC3)OC=C2C1=O (stereo unspecified)
[6]
  EC50: 17.7 µM (active)
[7]
  EC50: 68.8 µM (inconclusive)

## COc1cccc(/C=C2\SC(=O)N(CC(=O)NC3C=CS(=O)(=O)C3)C2=O)c1 (stereo unspecified)
[3]
  IC50: > 66 µM (inactive)
[4]
  IC50: 56.6 µM (inactive)

## O=C(COC(=O)c1ccccc1O)NCc1ccco1
[1]
  IC50: 9.53 µM (active)

## CC[N+]1(C)CC2CCC(C)(C1)C2(C)C (stereo unspecified)
[1]
  IC50: 27.8 µM (active)
